{"source": "patent US11116739B2", "about": "“Fixed dose combinations and formulations comprising ETC1002 and one or more statins and methods of treating or reducing cardiovascular disease” (Esperion Therapeutics, Inc., priority 2015, dated 2021)", "key": {"[1]": {"assay": "Study 1002-012: effect of steady-state ETC-1002 on single-dose PK of simvastatin, pravastatin, rosuvastatin", "description": "Serial PK blood samples were collected through the morning of Day −3. Starting on Day 1, all subjects received oral ETC-1002, 240 mg, once daily for 16 days. On the morning of Day 12, in addition to ETC-1002, subjects received a single dose of a statin drug, based on their cohort assignment; serial PK blood samples were collected."}, "[2]": {"assay": "clinical pharmacokinetics of ETC-1002", "type": "in vivo, human", "description": "(§1) The entire clinical program for ETC-1002 (conducted between 2009 and 2015) has included approximately 1000 subjects and patients, with approximately 700 receiving ETC-1002 doses ranging from 2.5 up to 240 mg/day (multiple doses) for up to 12 weeks. There are 15 completed clinical studies (nine Phase 1 and six Phase 2), and integrated data summaries are based on the 6 completed Phase 2 studies."}, "[3]": {"assay": "pivotal 6-month rat study", "conditions": "both sexes, in vivo, oral, male and female rats, read-out: no-observed-adverse-effect level (NOAEL) dose", "description": "(§2) In the pivotal 6-month rat study, the no-observed-adverse-effect level (NOAEL) dose was 30 mg/kg/day in male and female rats and the corresponding area under the curve during 24 hours (AUC0-24) values of the sum of ETC-1002 and ESP15228 were up to 528 μg·hr/mL. In the pivotal 12-month monkey study, the NOAEL dose was 60 mg/kg/day and the corresponding AUC0-24 value of the sum of ETC-1002 and ESP15228 was up to 4478 μg·hr/mL."}, "[4]": {"assay": "in-vitro and in-vivo genetic toxicology assays"}, "[5]": {"system": "patients", "assay": "6 integrated Phase 2 studies (safety, TEAEs, SAEs)", "type": "in vivo, human", "description": "as §1\nThe greatest number of patients experiencing at least 1 TEAE among ETC-1002-treated groups occurred in the ETC-1002 40-mg dose group (75.6%); this frequency was similar to the frequency of patients experiencing at least 1 TEAE in the placebo group (74.2%)."}, "[6]": {"system": "QT/QTc", "assay": "thorough QT/QTc (TQT) study (1002-022)", "type": "in vivo, human", "conditions": "ETC-1002 240 mg daily for 9 days"}, "[7]": {"assay": "Study 1002-007: effect of ETC-1002 on the PK of atorvastatin", "description": "All patients started ETC-1002 at a dose of 60 mg/day, which was up-titrated every 2 weeks to 120 mg/day, then 180 mg/day, then 240 mg/day."}, "[8]": {"system": "major cytochrome P450 (CYP) enzymes", "assay": "in vitro CYP inhibition/induction studies", "type": "in vitro ADME", "conditions": "at clinically relevant plasma concentrations"}, "[9]": {"system": "major drug transporters", "assay": "in vitro drug transporter inhibition", "type": "in vitro ADME"}, "[10]": {"assay": "drug interaction with metformin or Ortho-Novum 1/35", "type": "in vivo, human"}, "[11]": {"assay": "pivotal 12-month monkey study", "conditions": "in vivo, oral, read-out: NOAEL dose", "description": "as §2"}, "[12]": {"system": "patients", "assay": "integrated analysis of six Phase 2 studies (efficacy)", "type": "in vivo, human", "description": "as §1"}, "[13]": {"system": "rodent models of dyslipidemia", "assay": "primary pharmacology in rodent models of dyslipidemia", "type": "in vivo", "description": "The primary pharmacology of ETC-1002 was evaluated in several well-characterized and predictive rodent models of dyslipidemia. In these studies, ETC-1002 lowered LDL-C and triglycerides (TGs) and increased high-density lipoprotein cholesterol (HDL-C)."}, "[14]": {"system": "mice, rats, and monkeys", "assay": "oral toxicology studies up to 12 months", "type": "in vivo", "from_the_text": "In toxicology studies, evaluations of ETC-1002 in mice, rats, and monkeys in oral studies up to 12 months in duration have been completed. […] Routine clinical laboratory parameters will continue to be monitored carefully in clinical trials."}, "[15]": {"assay": "food-effect/bioequivalence study", "design": "species or system human", "conditions": "in vivo"}, "[16]": {"assay": "safety pharmacology studies", "conditions": "over the range of exposures intended for clinical studies"}}, "note": "Read-outs that look alike come from different tables or passages of the source."}
{"smiles": "CC(C)(CCCCCC(=O)CCCCCC(C)(C)C(=O)O)C(=O)O", "note": "[ESP15228]", "values": [{"measurement": "plasma concentrations and PK parameters", "setting": "[1]; after 12th daily 240-mg dose of ETC-1002 with single dose simvastatin 20 mg, pravastatin 40 mg or rosuvastatin 10 mg", "value": "consistent with those in previous monotherapy studies"}, {"measurement": "Cmax dose proportionality", "setting": "[2]; human, in vivo", "value": "increase in proportion to increasing dose"}, {"measurement": "mean t1/2", "setting": "[2]; human, in vivo", "value": "20 to 33", "unit": "h"}, {"measurement": "Tmax", "setting": "[2]; oral", "value": 7, "unit": "h"}]}
{"smiles": "CC(C)(CCCCCC(O)CCCCCC(C)(C)C(=O)O)C(=O)O", "note": "[ETC-1002, 8-hydroxy-2,2,14,14 tetramethylpentadecanedioic acid]", "values": [{"measurement": "NOAEL at 6 months", "setting": "[3]", "value": 30, "unit": "mg/kg/day"}, {"measurement": "clastogenicity", "setting": "[4]", "value": "non-clastogenic"}, {"measurement": "mutagenicity", "setting": "[4]", "value": "non-mutagenic"}, {"measurement": "deaths", "setting": "[5]; ETC-1002 120 mg group, Study 1002-008, Study Day 98, considered possibly related to study drug", "value": "One patient died with cause unknown"}, {"measurement": "frequency of TEAEs, SOC infections and infestations", "setting": "[5]; human, in vivo", "value": "11.6-25%"}, {"measurement": "patients experiencing at least 1 TEAE", "setting": "[5]; human, in vivo", "value": 75.6, "unit": "%"}, {"measurement": "dose-related trends in the frequency of TEAEs", "setting": "[5]; in vivo", "value": "there did not appear to be any dose-related trends"}, {"measurement": "dose-related trends in the frequency of myalgia", "setting": "[5]; in vivo", "value": "no dose-related trends"}, {"measurement": "muscle-related SAEs", "setting": "[5]; in vivo", "value": "no muscle-related SAEs"}, {"measurement": "other measures of safety including laboratory results", "setting": "[5]; in vivo", "value": "no clinically significant trends"}, {"measurement": "reports of rhabdomyolysis", "setting": "[5]; in vivo", "value": "no reports"}, {"measurement": "safety profile", "setting": "[5]; in vivo", "value": "excellent safety profile"}, {"measurement": "QT interval duration", "setting": "[6]", "value": "does not prolong"}, {"measurement": "change in QTc", "setting": "[6]", "value": "no significant change"}, {"measurement": "effect on heart rate and PR and QRS intervals", "setting": "[6]", "value": "no clinically significant effect"}, {"measurement": "LDL-C lowering", "setting": "[7]; ETC-1002 in combination with atorvastatin 10 mg vs atorvastatin alone", "value": "incremental LDL-C lowering beyond atorvastatin alone"}, {"measurement": "inhibition or induction of major CYP enzymes", "setting": "[8]", "value": "neither an inhibitor nor inducer"}, {"measurement": "inhibition of major drug transporters", "setting": "[9]", "value": "does not appear to inhibit"}, {"measurement": "drug interaction", "setting": "[10]; combination of ETC-1002 and Ortho-Novum 1/35 (combined oral contraceptive)", "value": "No drug interaction"}, {"measurement": "drug interaction", "setting": "[10]; combination of ETC-1002 and metformin", "value": "No drug interaction"}, {"measurement": "NOAEL at 12 months", "setting": "[11]", "value": 60, "unit": "mg/kg/day"}, {"measurement": "Cmax dose proportionality", "setting": "[2]; human, in vivo", "value": "increase in proportion to increasing dose"}, {"measurement": "Tmax", "setting": "[2]; human, in vivo, oral, read-out: Tmax", "value": "< 4", "unit": "h"}, {"measurement": "half-life", "setting": "[2]; human, in vivo, oral, read-out: mean t1/2", "value": "15 to 27", "unit": "h"}, {"measurement": "systemic exposure, AUCtau,ss, dose proportionality", "setting": "[2]; up to 120 mg daily, linear from 140 to 220 mg daily doses", "value": "slightly more than dose-proportional increase"}, {"measurement": "LDL-C, placebo-adjusted LS means for percent change from baseline", "setting": "[12]; 180 mg on top of stable statin therapy", "value": "~22", "unit": "%"}, {"measurement": "LDL-C, placebo-adjusted LS means for percent change from baseline", "setting": "[12]; ETC-1002 180 mg monotherapy", "value": "approximately 32%"}, {"measurement": "non-HDL-C, TC, LDL particle number and apoB", "setting": "[12]; accompanying reduced LDL-C", "value": "corresponding reductions"}, {"measurement": "effect on HDL-C and TGs", "setting": "[12]; in vivo", "value": "generally neutral"}, {"measurement": "LDL-C", "setting": "[13]", "value": "lowered"}, {"measurement": "high-density lipoprotein cholesterol (HDL-C)", "setting": "[13]", "value": "increased"}, {"measurement": "triglycerides (TGs)", "setting": "[13]", "value": "lowered"}, {"measurement": "central nervous system, respiratory, or cardiovascular liabilities", "setting": "[14]; oral, up to 12 months, mice, rats, monkeys", "value": "No significant central nervous system, respiratory, or cardiovascular liabilities have been identified"}, {"measurement": "target organs in repeat-dose studies", "setting": "[14]; rats and monkeys, changes reversible following cessation of treatment", "value": "liver and kidney"}, {"measurement": "food effect", "setting": "[15]", "value": "can be taken without regard to food"}, {"measurement": "risks for patients identified in safety pharmacology", "setting": "[16]", "value": "did not identify any significant risks"}]}
{"smiles": "CC(C)c1c(C(=O)Nc2ccccc2O)c(-c2ccccc2)c(-c2ccc(F)cc2)n1CC[C@@H](O)C[C@@H](O)CC(=O)O", "note": "[ortho-hydroxy atorvastatin]", "values": [{"measurement": "higher exposure than atorvastatin alone", "setting": "[7]; 10 mg atorvastatin plus 120 mg ETC-1002 daily vs 10 mg atorvastatin alone", "value": "approximately 60%"}, {"measurement": "exposure versus atorvastatin alone", "setting": "[7]; 10 mg atorvastatin plus ETC-1002 240 mg", "value": "higher exposure"}]}
{"smiles": "CCC(C)(C)C(=O)O[C@H]1C[C@@H](C)C=C2C=C[C@H](C)[C@H](CC[C@@H]3C[C@@H](O)CC(=O)O3)[C@H]21", "note": "[simvastatin, reference compound]", "values": [{"measurement": "exposure (AUC0-inf) increased", "setting": "[1]; single dose simvastatin 20 mg with steady-state ETC-1002 240 mg vs simvastatin alone, healthy subjects", "value": 29, "unit": "%"}]}
